Our source for the IC50 values is patent US20240398828A1, “HETERO-ATOM CONTAINING COMPOUNDS AND USES THEREOF” (Kumquat Biosciences Inc., priority 2021, published 2024).

Some results are limits rather than exact numbers.

The target in experiment [1] is T1, PTPN1 (i.e., PTP1B) (Homo sapiens, UniProt P18031).
T1 sequence (P18031 1-435): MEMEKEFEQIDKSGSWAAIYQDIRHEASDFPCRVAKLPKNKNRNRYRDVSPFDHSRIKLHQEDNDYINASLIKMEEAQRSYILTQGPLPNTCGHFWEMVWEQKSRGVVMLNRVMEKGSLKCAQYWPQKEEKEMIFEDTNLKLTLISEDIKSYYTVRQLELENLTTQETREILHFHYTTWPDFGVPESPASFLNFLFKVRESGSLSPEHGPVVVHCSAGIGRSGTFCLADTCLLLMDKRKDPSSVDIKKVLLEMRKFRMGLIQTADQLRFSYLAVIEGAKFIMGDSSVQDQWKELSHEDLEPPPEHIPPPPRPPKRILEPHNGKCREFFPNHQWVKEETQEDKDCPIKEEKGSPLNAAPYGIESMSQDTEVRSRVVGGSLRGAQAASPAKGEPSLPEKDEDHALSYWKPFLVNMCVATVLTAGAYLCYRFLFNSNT
Description: Phosphatase activity assay (DiFMUP substrate), PTP1B. Format: biochemical. Particulars: compounds binned ≤1 uM or >1 uM. Summed up: (§1)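 Continuous fluorogenic readout of DiFMUP dephosphorylation at room temperature, substrate set at Km for each phosphatase (about 45 μM in the PTPN2 assay). The buffer contains 1 mM DTT and 0.001% Tween-20, pH 7.5.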

The target of experiment [2] is T2, PTPN2 (i.e., TC-PTP) (Homo sapiens, UniProt P17706).
T2 sequence (P17706 1-415): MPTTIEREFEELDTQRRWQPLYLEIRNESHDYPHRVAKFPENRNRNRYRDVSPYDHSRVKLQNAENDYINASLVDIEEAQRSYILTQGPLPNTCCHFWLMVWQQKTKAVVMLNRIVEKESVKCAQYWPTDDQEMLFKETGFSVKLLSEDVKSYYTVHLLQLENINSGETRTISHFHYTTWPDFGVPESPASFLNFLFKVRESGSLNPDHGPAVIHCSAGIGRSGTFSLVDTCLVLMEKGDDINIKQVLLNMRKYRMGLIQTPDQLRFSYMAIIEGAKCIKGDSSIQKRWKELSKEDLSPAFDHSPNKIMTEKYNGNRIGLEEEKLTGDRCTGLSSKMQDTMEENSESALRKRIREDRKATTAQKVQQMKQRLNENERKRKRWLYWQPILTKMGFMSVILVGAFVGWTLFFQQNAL
Description: Phosphatase activity assay (DiFMUP substrate), PTPN2. In kind it is biochemical. Particulars: compounds binned ≤1 uM or >1 uM. Summed up:
as §1

Turning to `O=C1CN(c2c(O)ccc(C3=CCN(CCC(F)F)C3)c2F)S(=O)(=O)N1` [Compound 534, 5-(3-(1-(3,3-difluoropropyl)-2,5-dihydro-1H-pyrrol-3-yl)-2-fluoro-6-hydroxyphenyl)-1,2,5-thiadiazolidin-3-one 1,1-dioxide], the concentration for half-maximal inhibition (IC50) in experiment [1] and in experiment [2] was at most 1000 nM throughout.

As for `COc1ccc(-n2cnc(-c3ccc(O)c(N4CC(=O)NS4(=O)=O)c3F)c2)cc1` [Compound 348, 5-(2-fluoro-6-hydroxy-3-(1-(4-methoxyphenyl)-1H-imidazol-4-yl)phenyl)-1,2,5-thiadiazolidin-3-one 1,1-dioxide], the half-maximal inhibitory concentration (IC50) in experiment [1] and in experiment [2] was at most 1000 nM each time.

As to `O=C1CN(c2c(O)ccc(-c3cnc(C4CC4)o3)c2F)S(=O)(=O)N1` [Compound 249, 5-(3-(2-cyclopropyloxazol-5-yl)-2-fluoro-6-hydroxyphenyl)-1,2,5-thiadiazolidin-3-one 1,1-dioxide], the IC50 in experiment [1] and in experiment [2] was at most 1000 nM throughout.

Consider `O=C1CN(c2c(O)ccc(-c3ccc4ocnc4c3)c2F)S(=O)(=O)N1` [Compound 170, 5-(3-(benzo[d]oxazol-5-yl)-2-fluoro-6-hydroxyphenyl)-1,2,5-thiadiazolidin-3-one 1,1-dioxide], for which the IC50 in experiment [1] and in experiment [2] was at most 1000 nM throughout.

In the case of `CC(C)n1cc(-c2ccc(O)c(N3CC(=O)NS3(=O)=O)c2F)c(F)n1` [Compound 467, 5-(2-fluoro-3-(3-fluoro-1-isopropyl-1H-pyrazol-4-yl)-6-hydroxyphenyl)-1,2,5-thiadiazolidin-3-one 1,1-dioxide], the IC50 in experiment [1] and in experiment [2] was at most 1000 nM throughout.

As for `O=C1CN(c2c(O)ccc(-c3cnn(-c4ccccc4)c3)c2F)S(=O)(=O)N1` [Compound 147, 5-(2-fluoro-6-hydroxy-3-(1-phenyl-1H-pyrazol-4-yl)phenyl)-1,2,5-thiadiazolidin-3-one 1,1-dioxide], the IC50 in experiment [1] and in experiment [2] was at most 1000 nM each time.

As to `O=C1CN(c2c(O)ccc(C3=CC(CO)NC3)c2F)S(=O)(=O)N1` (stereo not drawn) [Compound 398, 5-(2-fluoro-6-hydroxy-3-(5-(hydroxymethyl)-2,5-dihydro-1H-pyrrol-3-yl)phenyl)-1,2,5-thiadiazolidin-3-one 1,1-dioxide], the IC50 in experiment [1] and in experiment [2] was at most 1000 nM throughout.

For `COCCCc1cc(-c2ccc(O)c(N3CC(=O)NS3(=O)=O)c2F)[nH]n1` [Compound 243, 5-(2-fluoro-6-hydroxy-3-(3-(3-methoxypropyl)-1H-pyrazol-5-yl)phenyl)-1,2,5-thiadiazolidin-3-one 1,1-dioxide], the IC50 in experiment [1] and in experiment [2] was at most 1000 nM in each case.

Regarding `O=C1CN(c2c(O)ccc(C3=CC(CCC4CC4)NC3)c2F)S(=O)(=O)N1` (stereo not drawn) [Compound 539, 5-(3-(5-(2-cyclopropylethyl)-2,5-dihydro-1H-pyrrol-3-yl)-2-fluoro-6-hydroxyphenyl)-1,2,5-thiadiazolidin-3-one 1,1-dioxide], the IC50 in experiment [1] and in experiment [2] was at most 1000 nM throughout.

Regarding `O=C1CN(c2c(O)ccc(C3=CCN(S(=O)(=O)C4CC4)C3)c2F)S(=O)(=O)N1` [Compound 238, 5-(3-(1-(cyclopropylsulfonyl)-2,5-dihydro-1H-pyrrol-3-yl)-2-fluoro-6-hydroxyphenyl)-1,2,5-thiadiazolidin-3-one 1,1-dioxide], the IC50 in experiment [1] and in experiment [2] was at most 1000 nM in each case.

For the molecule `Cc1nn(C)cc1-c1ccc(O)c(N2CC(=O)NS2(=O)=O)c1F` [Compound 142, 5-(3-(1,3-dimethyl-1H-pyrazol-4-yl)-2-fluoro-6-hydroxyphenyl)-1,2,5-thiadiazolidin-3-one 1,1-dioxide], the IC50 in experiment [1] and in experiment [2] was at most 1000 nM each time.

For the molecule `O=C1CN(c2c(O)ccc(-c3cn(C4CC4(F)F)[nH]c3=O)c2F)S(=O)(=O)N1` (stereo not drawn) [Compound 500, 5-(3-(1-(2,2-difluorocyclopropyl)-3-oxo-2,3-dihydro-1H-pyrazol-4-yl)-2-fluoro-6-hydroxyphenyl)-1,2,5-thiadiazolidin-3-one 1,1-dioxide], the IC50 in experiment [1] and in experiment [2] was at most 1000 nM in each case.

Regarding `CCCC1C=C(c2ccc(O)c(N3CC(=O)NS3(=O)=O)c2F)CN1` (stereo not drawn) [Compound 515, 5-(2-fluoro-6-hydroxy-3-(5-propyl-2,5-dihydro-1H-pyrrol-3-yl)phenyl)-1,2,5-thiadiazolidin-3-one 1,1-dioxide], the IC50 in experiment [1] and in experiment [2] was at most 1000 nM in each case.

For `CC(C)CNC1(c2cc(-c3ccc(O)c(N4CC(=O)NS4(=O)=O)c3F)nn2C)CC1` [Compound 269, 5-(2-fluoro-6-hydroxy-3-(5-(1-(isobutylamino)cyclopropyl)-1-methyl-1H-pyrazol-3-yl)phenyl)-1,2,5-thiadiazolidin-3-one 1,1-dioxide], the IC50 in experiment [1] and in experiment [2] was at most 1000 nM each time.

With `Cn1ccc(-c2ccc(F)c(N3CC(=O)NS3(=O)=O)c2F)c1` [Compound 116, 5-(2,6-difluoro-3-(1-methyl-1H-pyrrol-3-yl)phenyl)-1,2,5-thiadiazolidin-3-one 1,1-dioxide], the IC50 in experiment [1] and in experiment [2] was over 1000 nM in each case.

Take `Cc1c(C2CC2)n[nH]c1-c1ccc(O)c(N2CC(=O)NS2(=O)=O)c1F` [Compound 254, 5-(3-(3-cyclopropyl-4-methyl-1H-pyrazol-5-yl)-2-fluoro-6-hydroxyphenyl)-1,2,5-thiadiazolidin-3-one 1,1-dioxide]: the IC50 in experiment [1] and in experiment [2] was at most 1000 nM each time.

As for `CC(C)n1cc(-c2ccc(O)c(N3CC(=O)NS3(=O)=O)c2F)cn1` [Compound 108, 5-(2-fluoro-6-hydroxy-3-(1-isopropyl-1H-pyrazol-4-yl)phenyl)-1,2,5-thiadiazolidin-3-one 1,1-dioxide], the 50% inhibitory concentration (IC50) in experiment [1] and in experiment [2] was at most 1000 nM each time.

In the case of `O=C1CN(c2c(O)ccc(-n3cc(C4CC4)cn3)c2F)S(=O)(=O)N1` [Compound 270, 5-(3-(4-cyclopropyl-1H-pyrazol-1-yl)-2-fluoro-6-hydroxyphenyl)-1,2,5-thiadiazolidin-3-one 1,1-dioxide], the IC50 in experiment [1] and in experiment [2] was over 1000 nM throughout.

As to `O=C1CN(c2c(O)ccc(-c3ncc(C4CC4)[nH]3)c2F)S(=O)(=O)N1` [Compound 347, 5-(3-(5-cyclopropyl-1H-imidazol-2-yl)-2-fluoro-6-hydroxyphenyl)-1,2,5-thiadiazolidin-3-one 1,1-dioxide], the IC50 in experiment [1] and in experiment [2] was at most 1000 nM throughout.

As to `O=C1CN(c2c(O)ccc(-c3cc(C4CC4(F)F)n(CC(F)F)n3)c2F)S(=O)(=O)N1` (stereo not drawn) [Compound 508, 5-(3-(5-(2,2-difluorocyclopropyl)-1-(2,2-difluoroethyl)-1H-pyrazol-3-yl)-2-fluoro-6-hydroxyphenyl)-1,2,5-thiadiazolidin-3-one 1,1-dioxide], the IC50 in experiment [1] and in experiment [2] was at most 1000 nM in each case.

Consider `O=C1CN(c2c(O)ccc(-c3cnn(C4CC5CCC(C4)O5)c3)c2F)S(=O)(=O)N1` (stereo not drawn) [Compound 465, 5-(3-(1-(8-oxabicyclo[3.2.1]octan-3-yl)-1H-pyrazol-4-yl)-2-fluoro-6-hydroxyphenyl)-1,2,5-thiadiazolidin-3-one 1,1-dioxide], for which the IC50 in experiment [1] and in experiment [2] was at most 1000 nM each time.

Consider `O=C1CN(c2c(O)ccc(-c3cc(C(F)(F)F)n[nH]3)c2F)S(=O)(=O)N1` [Compound 247, 5-(2-fluoro-6-hydroxy-3-(3-(trifluoromethyl)-1H-pyrazol-5-yl)phenyl)-1,2,5-thiadiazolidin-3-one 1,1-dioxide], for which the IC50 in experiment [1] and in experiment [2] was at most 1000 nM throughout.

With `Cn1nc(-c2ccc(O)c(N3CC(=O)NS3(=O)=O)c2F)cc1N` [Compound 529, 5-(3-(5-amino-1-methyl-1H-pyrazol-3-yl)-2-fluoro-6-hydroxyphenyl)-1,2,5-thiadiazolidin-3-one 1,1-dioxide], the IC50 in experiment [1] and in experiment [2] was at most 1000 nM in each case.

With `O=C1CN(c2c(O)ccc(C3=CCCNC3)c2F)S(=O)(=O)N1` [Compound 511, 5-(2-fluoro-6-hydroxy-3-(1,2,5,6-tetrahydropyridin-3-yl)phenyl)-1,2,5-thiadiazolidin-3-one 1,1-dioxide], the IC50 in experiment [1] and in experiment [2] was at most 1000 nM each time.
